Target: 5-hydroxytryptamine receptors of the sub-type 1 (5-HT1 receptor)
Assay: Affinity to the 5-HT1 receptor: receptor binding studies using calf hippocampus membrane preparations, 3H-serotonin as radioactively labelled ligand
Settings: calf hippocampus membranes; 3H-serotonin radioligand
Method: In Table 1, as an example, the high affinity of the compounds according to the invention to 5-hydroxytryptamine receptors of the sub-type 1 is shown. The values specified are data which were determined from receptor binding studies using calf hippocampus membrane preparations. 3 H-serotonin was used for this purpose as radioactively labelled ligand.

Structure (SMILES) | Ki
CCCN(CCC)C1CCc2cccc(Cl)c2C1 (stereo not shown) [Example 1, 2-Dipropylamino8-chloro-1,2,3,4-tetrahydronaphthalene] | 20 nM
CCCN(CCC)C1CCc2cccc(Br)c2C1 (stereo not shown) [Example 2, 2-Dipropylamino-8-bromo-1,2,3,4-tetrahydronaphthalene] | 13 nM
CCCN(CCC)C1CCc2cccc(C(N)=O)c2C1 (stereo not shown) [Example 6, 2-Dipropylamino-8-carbamoyl-1,2,3,4-tetrahydronaphthalene] | 7 nM
CCCCS(=O)(=O)NCCOc1cccc2c1CC(N(CCC)CCC)CC2 (stereo not shown) [Example 26, 2-Dipropylamino-8-(2-butanesulphonamidoethoxy)-1,2,3,4-tetrahydronaphthalene] | 17 nM
CCCN(CCC)C1CCc2cccc(OCCNC(=O)OCC)c2C1 (stereo not shown) [Example 28, 2-Dipropylamino-8-(2-ethoxycarbonylamido-ethoxy)1,2,3,4-tetrahydronaphthalene] | 4 nM
CCCN(CCC)C1CCc2cccc(OCCNC(N)=O)c2C1 (stereo not shown) [Example 30, 2-Dipropylamino-8-ureidoethoxy-1,2,3,4-tetrahydronaphthalene] | 30 nM
CCCN(CCC)C1CCc2cccc(OCCNC=O)c2C1 (stereo not shown) [Example 33, 2-Dipropylamino-8-(2-formylamido-ethoxy)-1,2,3,4-tetrahydronaphthalene] | 19 nM
CCCN(CCC)C1CCc2cccc(CCNC(=O)OCc3ccccc3)c2C1 (stereo not shown) [Example 42, 2-Dipropylamino-8-(2-benzyloxycarbonylamido-ethyl)-2,3,4-tetrahydronaphthalene] | 5 nM
CCCN(CCC)C1CCc2cccc(OC)c2C1 (stereo not shown) [R^1 =OCH3, R^2 =R^3 =nC3 H7, reference compound] | 3 nM
CCCN(CCC)C1CCc2cccc(O)c2C1 (stereo not shown) [R^1 =OH, R^2 =R^3 =nC3 H7, reference compound] | 2 nM
